# Test results reported in patent US6469010B1, “Medicament for the alleviation or treatment of symptom derived from the ischemic disease and compound useful thereof” (Suntory Limited, priority 1995, dated 2002).
# Tests used:
# Na+ channel = test: Veratridine-induced sodium channel activity inhibiting action (membrane potential of synaptosomes, Rhodamine 6G); type: biochemical, Wistar rats; settings: 0.1 μM of compound; rat brain synaptosomes, veratridine-induced depolarization
# Experimental: Veratridine-induced Sodium Channel Activity Inhibiting Action
# The membrane potential of the synaptosomes prepared from the brain membrane of Wistar rats (male, 10 to 12 weeks old) was measured by the method of Aiuchi et al. [T. Aiuchi et al: Biochimi. Biophys. Acta.
# DBA/2N mice = test: Audiogenic seizure suppressing action; type: in vivo; settings: Mus musculus, ip, 20 min; compound 10 mg/kg, i.p.; audio stimulus after 20 minutes; suppression of average seizure score; read-out: Antiseizure action (suppression rate %)
# Experimental: Audiogenic Seizure Suppressing Action
# The audiogenic seizure suppressing action of the compounds was evaluated by the method of Sarro et al. [G. B. De Sarro et al.; Br. J. Pharmacol., 93, 247 (1988)]. That is, DBA/2N mice (male, 3 weeks) were administered with the compound dissolved in 10% 2-hydroxypropyl-β-cyclodextrin intraperitoneally. After 20 minutes, a supersonic washer was used to apply audio stimulus of at least 90 dB for one minute. The wild running (WR), clonic seizures (clonus), tonic seizures (tonus), and respiratory arrest (RA) were evaluated. The seizure suppressing action was evaluated from the rate or suppression of the average value of the seizure score found from 0=no response, 1=WR, 2=clonus, 3=tonus, and 4=RA.
Structure (SMILES),Antiveratridine action (inhibiting rate %) (Na+ channel),inhibition in vivo at 10 mg/kg (DBA/2N mice)
"COc1cc(/C=C/CN2CCC(c3ccc(Oc4ccccc4)cc3)CC2)ccc1O [Compound 19, (E)-1-[3-(4-hydroxy-3-methoxyphenyl)-2-propenyl]-4-(4-phenoxyphenyl)piperidine]",26.1%,53.6%
"c1ccc(Cc2ccccc2N2CCN(CC3CC3c3ccccc3)CC2)cc1 (stereo not drawn) [Compound 52, (E)-1-(2-benzylphenyl)-4-[trans-(2-phenyl)cyclopropylmethyl]piperazine]",,20%
"COc1ccc(C(=O)CN2CCC(c3ccc(Oc4ccccc4)cc3)CC2)cc1 [Compound 66, 1-[2-(4-methoxyphenyl)-2-oxo]ethyl-4-(4-phenoxyphenyl)piperidine]",19.6%,39.2%
"ON=C(CN1CCC(c2ccc(Oc3ccccc3)cc2)CC1)c1ccccc1 [Compound 74, 4-(4-phenoxyphenyl)-1-(2-phenyl-2-hydroxyimino)ethylpiperidine]",14.6%,44.4%
"Fc1ccc(Cc2ccc(N3CCN(CCCCOc4ccc(F)cc4)CC3)cc2)cc1 [Compound 57, 4-[4-(4-fluorophenyl)-oxybutyl]-1-[4-(4-fluorophenyl)methylphenyl]pinerazine]",25%,
"COc1ccc(Cc2ccc(C3CCN(CC(=O)c4ccccc4)CC3)cc2)cc1 [Compound 70, 4-[4-(4-methoxyphenyl)methylphenyl]-1-(2-phenyl-2-oxo)ethylpiperidine]",,73.9%
"O=C1c2ccccc2CC1N1CCC(c2ccc(Oc3ccccc3)cc2)CC1 (centres unmarked) [Compound 71, 1-(1-oxoindan-2-yl)-4-(4-phenoxy)phenylpiperidine]",,32%
"Fc1ccc(Cc2ccc(C3CCN(CC4(c5ccccc5)CC4)CC3)cc2)cc1 [Compound 62, 4-[4-(4-fluorophenyl)-methylphenyl]-1-(1-phenyl-1-cyclopropane)methyl-piperidine]",23.9%,44%
"O=C(CN1CCN(c2ccc(Cc3ccc(F)cc3)cc2)CC1)c1ccccc1 [Compound 82, 1-[4-(4-fluorophenyl)methylphenyl]-4-(2-phenyl-2-oxo)ethylpiperazine]",16.9%,71.9%
"Fc1ccc(Cc2ccc(C3=CCN(C/C=C/c4ccccc4)CC3)cc2)cc1 [Compound 31, (E)-4-[4-(4-fluorophenyl)-methylphenyl]-1-(3-phenyl-2-propenyl)-1,2,3,6-tetrahydropyridine]",,48%
"O=C(CN1CCC(c2ccc(Oc3ccccc3)cc2)CC1)c1ccc(F)cc1 [Compound 67, 1-[2-(4-fluorophenyl)-2-oxo]ethyl-4-(4-phenoxyphenyl)piperidine]",15%,37%
"COc1ccc(CN2CCC(c3ccc(Oc4ccccc4)cc3)CC2)c(OC)c1OC [Compound 29, 4-(4-phenoxyphenyl)-1-[(2,3,4-trimethoxyphenyl)methyl]piperidine]",9.9%,66.2%
"OC(CN1CCC(c2ccc(Oc3ccccc3)cc2)CC1)c1ccc(Cl)cc1 (centres unmarked) [Compound 78, 1-[2-(4-chlorophenyl)-2-hydroxy]ethyl-4-(4-phenoxyphenyl)piperidine]",44.4%,66%
"COc1cc(/C=C/CN2CC=C(c3ccc(Oc4ccccc4)cc3)CC2)ccc1O [Compound 24, (E)-1-[3-(4-hydroxy-3-methoxyphenyl)-2-propenyl]-4-(4-phenoxyphenyl)-1,2,3,6-tetrahydropyridine]",,49.1%
"Fc1ccc(Cc2ccc(N3CCN(CC4CC4c4ccccc4)CC3)cc2)cc1 (stereo not drawn) [Compound 55, (E)-1-[4-(4-fluorophenyl)-methylphenyl]-4-[trans-(2-phenyl)cyclopropylmethyl]-piperazine]",,62%
"C(=C\c1ccccc1)/CN1CCN(c2ccccc2Cc2ccccc2)CC1 [Compound 51, (E)-1-(2-benzylphenyl)-4-(3-phenyl-2-propenyl)piperazine]",,71.4%
"O=C(CN1CCC(c2ccc(Cc3ccc(F)cc3)cc2)CC1)c1ccccc1 [Compound 63, 4-[4-(4-fluorophenyl)methylphenyl]-1-(2-phenyl-2-oxo)ethylpiperidine]",31.1%,76%

Structure (SMILES),Antiveratridine action (inhibiting rate %) (Na+ channel),inhibition in vivo at 10 mg/kg (DBA/2N mice)
"OC(COc1ccccc1)CN1CCC(c2ccc(Cc3ccc(F)cc3)cc2)CC1 (centres unmarked) [Compound 81, 4-[4-(4-fluorophenyl)methylphenyl]-1-(2-hydroxy-3-phenoxy)propylpiperidine]",24.1%,61%
"Fc1ccc(/C=C/CN2CCC(c3ccc(Oc4ccccc4)cc3)CC2)cc1 [Compound 25, (E)-1-[3-(4-fluorophenyl)-2-propenyl]-4-(4-phenoxyphenyl)piperidine]",,72%
"COc1ccc(CN2CCN(c3ccc(Cc4ccc(F)cc4)cc3)CC2)c(OC)c1OC [Compound 56, 1-[4-(4-fluorophenyl)-methylphenyl]-4-[(2,3,4-trimethoxyphenyl)methyl]piperazine]",,50%
"Fc1ccc(OCCCCN2CCC(c3ccc(Oc4ccccc4)cc3)CC2)cc1 [Compound 28, 1-[4-(4-fluorophenyl)-oxybutyl]-4-(4-phenoxyphenyl)piperidine]",38%,56.9%
"O=C(CCCN1CCN(c2ccc(Cc3ccc(F)cc3)cc2)CC1)c1ccc(F)cc1 [Compound 58, 1-[4-(4-fluorophenyl)methylphenyl]-4-[4-((4-fluorophenyl)-4-oxo)butyl]-piperazine]",33.9%,66%
"COc1ccc(/C=C/CN2CCN(c3ccc(Cc4ccc(F)cc4)cc3)CC2)c(OC)c1OC [Compound 48, (E)-1-[4-(4-fluorophenyl)-methylphenyl]-1-[3-(2,3,4-trimethoxyphenyl)-2-propenyl]-piperazine]",20.5%,53.6%
"OC(CN1CCC(c2ccc(Oc3ccccc3)cc2)CC1)c1ccccc1 (centres unmarked) [Compound 77, 1-(2-hydroxy-2-phenyl)-ethyl-4-(4-phenoxyphenyl)piperidine]",31.1%,85.7%
"Fc1ccc(OCCN2CCC(c3ccc(Oc4ccccc4)cc3)CC2)cc1 [Compound 27, 1-[2-(4-fluorophenyl)oxyethyl]-4-(4-phenoxyphenyl)piperidine]",,34%
"C(=C\c1ccccc1)/CN1CCN(c2ccccc2Oc2ccccc2)CC1 [Compound 42, (E)-1-(2-phenoxyphenyl)-4-(3-phenyl-2-propenyl)piperazine]",,60%
"C1=C(c2ccc(Oc3ccccc3)cc2)CCN(C/C=C/c2ccccc2)C1 [Compound 18, (E)-4-(4-phenoxyphenyl)-1-(3-phenyl-2-propenyl)-1,2,3,6-tetrahydropyridine]",16%,27.9%
"COc1ccc(CN2CCN(c3ccc(Oc4ccccc4)cc3)CC2)c(OC)c1OC [Compound 46, 1-(4-phenoxyphenyl)-4-[(2,3,4-trimethoxyphenyl)methyl]piperazine]",11.7%,27.9%
"Fc1ccc(Cc2ccccc2C2=CCN(C/C=C/c3ccccc3)CC2)cc1 [Compound 34, (E)-4-[2-(4-fluorophenyl)methylphenyl]-1-(3-phenyl-2-propenyl)-1,2,3,6-tetrahydropyridine]",,34%
"c1ccc(CCCN2CCC(c3ccc(Oc4ccccc4)cc3)CC2)cc1 [Compound 22, 4-(4-phenoxyphenyl)-1-(3-phenylpropyl)piperidine]",,85.7%
"CC(C(=O)c1ccccc1)N1CCC(c2ccc(Oc3ccccc3)cc2)CC1 (centres unmarked) [Compound 69, 1-(1-benzoylethyl)-4-(4-phenoxyphenyl)piperidine]",11.2%,64.7%
"Fc1ccc(OCCCCN2CCN(c3ccc(Oc4ccccc4)cc3)CC2)cc1 [Compound 41, 4-[4-(4-fluorophenyl)-oxybutyl]-1-(4-phenoxyphenyl)piperazine]",20.8%,42.7%
"O=C(CN1CCC(c2ccc(Oc3ccccc3)cc2)CC1)c1ccccc1 [Compound 64, 4-(4-phenoxyphenyl)-1-(2-phenyl-2-oxo)ethylpiperidine]",34.5%,94%
"O=C(CN1CCC(c2ccc(Oc3ccccc3)cc2)CC1)c1ccc(Cl)cc1 [Compound 68, 1-[2-(4-chlorophenyl)-2-oxo]ethyl-4-(4-phenoxyphenyl]piperidine]",38.9%,
